This passage reports IC50 results from patent US20260151375A1, “CDK2 INHIBITORS AND METHODS OF USING THE SAME” (Cedilla Therapeutics, Inc., priority 2022, published 2026).

For one experiment, the target named is T1, CDK2/Cyclin E1 (Homo sapiens, UniProt P24941).
T1 construct: purchased 14-475
The experiment can be described thus: Caliper Assay (LabChip EZ Reader mobility shift assay), inhibition of CDK2/Cyclin E1 activity. In kind it is biochemical. The note with it: 2.5 nM CDK2/Cyclin E1(14-475), 100 μM ATP, 30 min preincubation; read-out: Caliper Assay (CDK2/CCNE1): IC50. The procedure:
Inhibition of CDK2/Cyclin E1 activity in the presence of compounds of the present disclosure was evaluated using a Caliper LabChip® EZ Reader mobility shift assay. In the assay, activated CDK2/Cyclin E1 catalyzes the phosphorylation of a fluorescently tagged peptide 5-FAM-QSPKKG-CONH2 (PerkinElmer, FL Peptide 18) which induces a difference in capillary electrophoresis mobility. The peptide substrate and product were measured, and the conversion ratio was used to determine the inhibition (as % activity and IC50 values) of CDK2/Cyclin E1. Reactions contained 50 mM HEPES pH 7.5, 10 mM MgCl2, 1 mM EDTA, 2 mM DTT, 0.01% Brij35, 0.5 mg/mL BSA, 0.1% DMSO, 2.5 nM CDK2/Cyclin E1(14-475), 100 μM ATP, and 1.5 μM fluorescent peptide substrate.
Dose titrations of inhibitors in 100% DMSO were combined with 3.25 nM CDK2/Cyclin E1(14-475) and 130 μM of ATP in reaction buffer. The mixtures were incubated for 30 minutes before the addition of fluorescent peptide substrate to initiate the kinase reaction. The final conditions were 2.5 nM CDK2/Cyclin E1(14-475), 100 μM ATP, and 1.5 μM fluorescent peptide. The reactions were stopped after 100 minutes with the addition of EDTA (6 mM final EDTA concentration). The stopped reactions were analyzed on a Caliper LabChip© EZ Reader II. The conversion ratios were normalized to yield % activity, plotted against compound concentration, and fit to a four-parameter equation to determine the IC50 for each compound.

Another experiment deals with Kuramochi cells. Briefly: IncuCyte Kuramochi Assay (cell proliferation). The format is cell-based. As to conditions: 72 h, Kuramochi cells labeled with mApple-H2B, cell count, read-out: IncuCyte - Kuramochi RB-WT: IC50. The procedure:
IncuCyte® assay was used to measure the effect of disclosed compounds on cell proliferation. Fluorescent microscopy images of cells were taken immediately after compound treatment and 72 hours later. Image analysis software was used to obtain cell counts as a function of compound concentration. Kuramochi cells labeled with mApple-H2B were seeded on 384-well assay-ready plates. Plates were placed in an IncuCyte® (Sartorius) and scanned at 0 and 72 hours. IncuCyte® software was used to count the number of fluorescent nuclei in each well. The fold change in cell count from 0 to 72 hours in wells treated with increasing compounds concentrations (10 pts, ½ log dilution, 20 μM top concentration) was normalized to DMSO control wells. The normalized cell counts were fit with dose response curves and a […] was calculated.

For the molecule `CCO[C@H]1C[C@@H](c2nc(C3CN(C(=O)c4cnn(Cc5ccccc5)c4)CC34CN(C(=O)[C@H]3CC3(C)C)C4)no2)C1` (stereo partly shown) [I-3], the IC50 at CDK2/Cyclin E1 was 1 to 10 µM; in the experiment on Kuramochi cells it was over 10 µM.

With `O=C(c1nncs1)N1CC(c2nnc(C(F)(F)c3ccc(Cl)c(Cl)c3)o2)C2(C1)CN(C(=O)[C@H]1CC1(F)F)C2` (stereo partly shown) [I-149], the IC50 at CDK2/Cyclin E1 and in the experiment with Kuramochi cells was over 10 µM throughout.

With `O=C(c1cncs1)N1CC(c2nnc(C(F)(F)c3ccc(Cl)c(Cl)c3)o2)C2(CC(C(=O)N3CCC3)C2)C1` (stereo not shown) [I-180], the IC50 on CDK2/Cyclin E1 and with Kuramochi cells was over 10 µM in each case.

With `O=C(c1nccnc1O)N1CC(c2nnc(C(F)(F)c3ccc(Cl)c(Cl)c3)o2)C2(C1)CN(C(=O)[C@H]1CC1(F)F)C2` (stereo partly shown) [I-166], the IC50 on CDK2/Cyclin E1 and in the experiment with Kuramochi cells was over 10 µM each time.

Consider `CC(C)(c1cccc(C2CCOCC2)n1)c1nnc(C2CN(C(=O)c3cncs3)CC23CN(C(=O)[C@H]2CC2(C)C)C3)o1` (stereo partly shown) [I-102], for which the IC50 on CDK2/Cyclin E1 is 0.01 to 0.1 µM; in the experiment with Kuramochi cells, over 10 µM.

Regarding `CC1(C)C[C@@H]1C(=O)N1CC2(CN(C(=O)c3cncs3)CC2c2ncc(Cc3ccc(C(F)(F)F)c(Cl)c3)o2)C1` (stereo partly drawn) [I-201, (8-(5-(3-chloro-4-(trifluoromethyl)benzyl)oxazol-2-yl)-2-((S)-2,2-dimethylcyclopropane-1-carbonyl)-2,6-diazaspiro[3.4]octan-6-yl)(thiazol-5-yl)methanone], the IC50 at CDK2/Cyclin E1 was in the range of 0.1 to 1 µM; in the experiment with Kuramochi cells, 5 to 10 µM.

In the case of `CC(c1nc(C2CN(C(=O)c3cncs3)CC23CN(C(=O)[C@H]2CC2(C)C)C3)no1)n1cc2ccccc2n1` (stereo partly shown) [I-75], the IC50 at CDK2/Cyclin E1 is 0.1 to 1 µM; in the experiment with Kuramochi cells, over 10 µM.

As for `O=C(c1ccn[nH]1)N1CC(c2nnc(C(F)(F)c3ccc(Cl)c(Cl)c3)o2)C2(C1)CN(C(=O)[C@H]1CC1(F)F)C2` (stereo partly shown) [I-155], the IC50 at CDK2/Cyclin E1 and in the experiment with Kuramochi cells was over 10 µM each time.

As for `CC(c1nc(C2CN(C(=O)c3cncs3)CC23CN(C(=O)[C@H]2CC2(C)C)C3)no1)n1ncc2ccccc21` (stereo partly shown) [I-74], the IC50 is 1 to 10 µM on CDK2/Cyclin E1 and over 10 µM in the experiment with Kuramochi cells.

With `CC1(C)C[C@@H]1C(=O)N1CC2(CN(C(=O)c3cncs3)CC2c2nnc(Cc3nc(C4CCOCC4)ccc3F)o2)C1` (stereo partly drawn) [I-50, (2-((S)-2,2-dimethylcyclopropane-1-carbonyl)-8-(5-((3-fluoro-6-(tetrahydro-2H-pyran-4-yl)pyridin-2-yl)methyl)-1,3,4-oxadiazol-2-yl)-2,6-diazaspiro[3.4]octan-6-yl)(thiazol-5-yl)methanone], the IC50 is 1 to 10 µM on CDK2/Cyclin E1 and over 10 µM in the experiment with Kuramochi cells.

With `CC(c1cc[nH]n1)c1nc(C2CN(C(=O)c3cncs3)CC23CN(C(=O)[C@H]2CC2(C)C)C3)no1` (stereo partly drawn) [I-77, (8-(5-(1-(1H-pyrazol-3-yl)ethyl)-1,2,4-oxadiazol-3-yl)-2-((S)-2,2-dimethylcyclopropane-1-carbonyl)-2,6-diazaspiro[3.4]octan-6-yl)(thiazol-5-yl)methanone], the IC50 at CDK2/Cyclin E1 was 1 to 10 µM; in the experiment on Kuramochi cells it was over 10 µM.

In the case of `CC(C)(C#N)C(=O)N1CC2(CN(Cc3cnccn3)CC2c2nnc(C(F)(F)c3ccc(Cl)c(Cl)c3)o2)C1` (stereo not shown) [I-146], the values for the IC50 at CDK2/Cyclin E1 and in the experiment on Kuramochi cells were over 100 µM and over 10 µM, respectively.

On to `O=C(c1onc2ccccc12)N1CC(c2nnc(C(F)(F)c3ccc(Cl)c(Cl)c3)o2)C2(C1)CN(C(=O)[C@H]1CC1(F)F)C2` (single isomer, unassigned) [I-151 1st], for which the IC50 at CDK2/Cyclin E1 and with Kuramochi cells was over 10 µM in each case.

`CC(C)(O)C(=O)N1CC2(CN(C(=O)c3cncs3)CC2c2nnc(C(F)(F)c3ccc(Cl)c(Cl)c3)o2)C1` (stereo not shown) [I-178]: the IC50 on CDK2/Cyclin E1 and in the experiment with Kuramochi cells was over 10 µM in each case.

Turning to `CC1(C)C[C@@H]1C(=O)N1CC2(CN(C(=O)c3cncs3)CC2c2nnc(CCc3ccc(Cl)c(Cl)c3)o2)C1` (stereo partly shown) [I-28], the IC50 on CDK2/Cyclin E1 was 0.1 to 1 µM; with Kuramochi cells it was over 10 µM.

Take `Cc1cc(C)n(C(C)c2nnc(C3CN(C(=O)c4cnn(Cc5ccccc5)c4)CC34CN(C(=O)[C@H]3CC3(C)C)C4)o2)n1` (stereo partly shown) [I-18]: the IC50 at CDK2/Cyclin E1 was 0.1 to 1 µM; with Kuramochi cells it was over 10 µM.

Turning to `O=C(c1cncs1)N1CC(c2nnc(C(F)(F)c3ccc(Cl)c(Cl)c3)o2)C2(CN(CC3CCCO3)C2)C1` (stereo not shown) [I-182, (8-(5-((3,4-dichlorophenyl)difluoromethyl)-1,3,4-oxadiazol-2-yl)-2-((tetrahydrofuran-2-yl)methyl)-2,6-diazaspiro[3.4]octan-6-yl)(thiazol-5-yl)methanone], the IC50 on CDK2/Cyclin E1 and in the experiment on Kuramochi cells was over 10 µM each time.

As for `CC1(C)C[C@@H]1C(=O)N1CC2(CN(C(=O)c3cnn(Cc4ccccc4)c3)CC2c2nnc(CC3CCOCC3)o2)C1` (stereo partly shown) [I-12], the IC50 at CDK2/Cyclin E1 was 1 to 10 µM; in the experiment with Kuramochi cells, over 10 µM.

Consider `CC1(C)C[C@@H]1C(=O)N1CC2(CN(C(=O)c3cnco3)CC2c2nnc(C(F)(F)c3ccc(Cl)c(Cl)c3)o2)C1` (stereo partly shown) [I-44], for which the results for the IC50 on CDK2/Cyclin E1 and in the experiment on Kuramochi cells were 1 to 10 µM and over 10 µM, respectively.

Turning to `CC1(C)C[C@@H]1C(=O)N1CC2(C1)CN(c1ncnc3ncsc13)CC2c1nnc(C(F)(F)c2ccc(Cl)cc2)o1` (stereo partly drawn) [I-37, (8-(5-((4-chlorophenyl)difluoromethyl)-1,3,4-oxadiazol-2-yl)-6-(thiazolo[4,5-d]pyrimidin-7-yl)-2,6-diazaspiro[3.4]octan-2-yl)((S)-2,2-dimethylcyclopropyl)methanone], the IC50 is 1 to 10 µM at CDK2/Cyclin E1 and over 10 µM in the experiment with Kuramochi cells.

Turning to `CC1(C)C[C@@H]1C(=O)N1CC2(CN(C(=O)c3cn[nH]c3)CC2c2nnc(C(F)(F)c3ccc(Cl)c(Cl)c3)o2)C1` (stereo partly shown) [I-52], the IC50 at CDK2/Cyclin E1 is 0.1 to 1 µM; in the experiment on Kuramochi cells, over 10 µM.

As to `O=C([C@H]1CC1(F)F)N1CC2(C1)CN(C(=O)N1CCOCC1)CC2c1nnc(C(F)(F)c2ccc(Cl)c(Cl)c2)o1` (stereo partly drawn) [I-148, (8-(5-((3,4-dichlorophenyl)difluoromethyl)-1,3,4-oxadiazol-2-yl)-2-((R)-2,2-difluorocyclopropane-1-carbonyl)-2,6-diazaspiro[3.4]octan-6-yl)(morpholino)methanone], the IC50 on CDK2/Cyclin E1 and in the experiment on Kuramochi cells was over 10 µM each time.

With `O=C(c1[nH]ncc1C(F)(F)F)N1CC(c2nnc(C(F)(F)c3ccc(Cl)c(Cl)c3)o2)C2(C1)CN(C(=O)[C@H]1CC1(F)F)C2` (stereo partly shown) [I-163], the IC50 on CDK2/Cyclin E1 and in the experiment with Kuramochi cells was over 10 µM each time.

For the molecule `CC1(C(=O)N2CC3(C2)CN(c2ncnc4ncsc24)CC3c2nnc(C(F)(F)c3ccc(Cl)c(Cl)c3)o2)CC1(F)F` (stereo not shown) [I-174, (8-(5-((3,4-dichlorophenyl)difluoromethyl)-1,3,4-oxadiazol-2-yl)-6-(thiazolo[4,5-d]pyrimidin-7-yl)-2,6-diazaspiro[3.4]octan-2-yl)(2,2-difluoro-1-methylcyclopropyl)methanone], the IC50 at CDK2/Cyclin E1 is 1 to 10 µM; in the experiment with Kuramochi cells it was over 10 µM.

Regarding `CC1(C)C[C@@H]1C(=O)N1CC2(CN(C(=O)c3cnn(Cc4ccccc4)c3)CC2c2nnc(Cc3ccncc3)o2)C1` (stereo partly shown) [I-23], the values for the IC50 on CDK2/Cyclin E1 and with Kuramochi cells were 0.1 to 1 µM and over 10 µM, respectively.

As for `O=C(c1cncs1)N1CC(c2nnc(Cc3ccc(Cl)c(Cl)c3)o2)C2(C1)CN(c1ncccn1)C2` (stereo not shown) [I-49], the IC50 at CDK2/Cyclin E1 and in the experiment on Kuramochi cells was over 10 µM each time.

Regarding `CC1(C)C[C@@H]1C(=O)N1CC2(CN(C(=O)c3cnn(Cc4ccccc4)c3)CC2c2ccc(NC(=O)C3CCCCC3)cc2)C1` (stereo partly drawn) [I-87, N-(4-(6-(1-benzyl-1H-pyrazole-4-carbonyl)-2-((S)-2,2-dimethylcyclopropane-1-carbonyl)-2,6-diazaspiro[3.4]octan-8-yl)phenyl)cyclohexanecarboxamide], the IC50 at CDK2/Cyclin E1 was 1 to 10 µM; in the experiment on Kuramochi cells it was 5 to 10 µM.

As for `CC1(C)C[C@@H]1C(=O)N1CC2(CN(C(=O)c3cncs3)CC2(F)c2nnc(C(F)(F)c3ccc(Cl)c(Cl)c3)o2)C1` (single isomer, unassigned) [I-38 2nd], the IC50 at CDK2/Cyclin E1 is 1 to 10 µM; with Kuramochi cells it was over 10 µM.

For the molecule `CC1(C)C[C@@H]1C(=O)N1CC2(CN(C(=O)c3cnn(Cc4ccccc4)c3)CC2c2nc(C(=O)NCc3ccccc3)co2)C1` (stereo partly drawn) [I-91, N-benzyl-2-(6-(1-benzyl-1H-pyrazole-4-carbonyl)-2-((S)-2,2-dimethylcyclopropane-1-carbonyl)-2,6-diazaspiro[3.4]octan-8-yl)oxazole-4-carboxamide], the figures for the IC50 on CDK2/Cyclin E1 and in the experiment with Kuramochi cells were 0.1 to 1 µM and over 10 µM, respectively.
